Data from the supplement of paper PMC10307832.

Key:
Assay in all cases: relative viability (nuclei count vs DMSO), 5 days (fraction); higher = more cells survive
Neratinib + Foretinib = compound: CCOc1cc2ncc(C#N)c(Nc3ccc(OCc4ccccn4)c(Cl)c3)c2cc1NC(=O)/C=C/CN(C)C [Neratinib] + COc1cc2c(Oc3ccc(NC(=O)C4(C(=O)Nc5ccc(F)cc5)CC4)cc3F)ccnc2cc1OCCCN1CCOCC1 [Foretinib] (partner 0.25 µM)
Summary of the method: (§1)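 The day after seeding in 1536-well plates, lung cancer cell lines were treated by pin tool with a single drug, or with a fixed anchor-drug dose together with five library-drug doses (not always all listed) in √10 steps. After 5 days, a combined fix-and-stain solution (final 0.05% Triton X-100, 1% formaldehyde, 1 ug/ml Hoechst) was added. Nuclei counted on 4× images gave relative viability as treated counts over vehicle counts, reported as the median of duplicate plates.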

Neratinib + Luminespib = compound: CCOc1cc2ncc(C#N)c(Nc3ccc(OCc4ccccn4)c(Cl)c3)c2cc1NC(=O)/C=C/CN(C)C [Neratinib] + CCNC(=O)c1noc(-c2cc(C(C)C)c(O)cc2O)c1-c1ccc(CN2CCOCC2)cc1 [Luminespib] (partner 0.01 µM)
Summary of the method: as §1

Neratinib + AZD7762 = compound: CCOc1cc2ncc(C#N)c(Nc3ccc(OCc4ccccn4)c(Cl)c3)c2cc1NC(=O)/C=C/CN(C)C [Neratinib] + NC(=O)Nc1cc(-c2cccc(F)c2)sc1C(=O)N[C@H]1CCCNC1 [AZD7762] (partner 0.2 µM)
Summary of the method: as §1

Neratinib + Tozasertib = compound: CCOc1cc2ncc(C#N)c(Nc3ccc(OCc4ccccn4)c(Cl)c3)c2cc1NC(=O)/C=C/CN(C)C [Neratinib] + Cc1cc(Nc2cc(N3CCN(C)CC3)nc(Sc3ccc(NC(=O)C4CC4)cc3)n2)n[nH]1 [Tozasertib] (partner 0.1 µM)
Summary of the method: as §1

Row | Cell Line | relative viability (Neratinib + Foretinib; first compound 0.01 µM) | relative viability (Neratinib + Foretinib; first compound 0.03162 µM) | relative viability (Neratinib + Foretinib; first compound 0.1 µM) | relative viability (Neratinib + Foretinib; first compound 0.3162 µM) | relative viability (Neratinib + Foretinib; first compound 1 µM) | relative viability (Neratinib + Luminespib; first compound 0.01 µM) | relative viability (Neratinib + Luminespib; first compound 0.03162 µM) | relative viability (Neratinib + Luminespib; first compound 0.1 µM) | relative viability (Neratinib + Luminespib; first compound 0.3162 µM) | relative viability (Neratinib + Luminespib; first compound 1 µM) | relative viability (Neratinib + AZD7762; first compound 0.01 µM) | relative viability (Neratinib + AZD7762; first compound 0.1 µM) | relative viability (Neratinib + AZD7762; first compound 0.3162 µM) | relative viability (Neratinib + AZD7762; first compound 1 µM) | relative viability (Neratinib + Tozasertib; first compound 0.01 µM) | relative viability (Neratinib + Tozasertib; first compound 0.03162 µM) | relative viability (Neratinib + Tozasertib; first compound 0.1 µM) | relative viability (Neratinib + Tozasertib; first compound 0.3162 µM) | relative viability (Neratinib + Tozasertib; first compound 1 µM) | relative viability (Neratinib + AZD7762; first compound 0.03162 µM)
1 | NCI-H1563 | 0.858 | 0.942 | 0.885 | 0.844 | 0.75 | 0.57 | 0.498 | 0.488 | 0.503 | 0.484 | – | – | – | – | – | – | – | – | – | –
2 | NCI-H1648 | – | – | – | – | – | – | – | – | – | – | 0.676 | 0.491 | 0.552 | 0.444 | 0.608 | 0.364 | 0.54 | 0.299 | 0.188 | –
3 | NCI-H1650 | 1.1 | 1.29 | 0.744 | 0.657 | 0.602 | 0.201 | 0.186 | 0.204 | 0.228 | 0.203 | – | – | – | – | 0.362 | 0.359 | 0.292 | 0.31 | 0.204 | –
4 | NCI-H1703 | 0.447 | 0.318 | 0.356 | 0.327 | 0.218 | – | – | – | – | – | 0.148 | 0.164 | 0.111 | 0.118 | – | – | – | – | – | 0.135
5 | NCI-H1792 | – | – | – | – | – | 0.458 | 0.466 | 0.365 | 0.358 | 0.381 | – | 0.625 | 0.533 | 0.283 | – | – | – | – | – | 0.943
6 | NCI-H2009 | 1.2 | 1.29 | 1.17 | 1.25 | 1.05 | 0.998 | 1.01 | 0.828 | 1.01 | 0.962 | – | – | – | – | 0.732 | 0.799 | 0.621 | 0.613 | 0.554 | –
7 | NCI-H2023 | 0.797 | 0.803 | 0.415 | 0.454 | 0.257 | 0.999 | 0.871 | 0.579 | 0.709 | 0.579 | – | – | – | – | 0.389 | 0.33 | 0.292 | 0.211 | 0.141 | –
8 | NCI-H2228 | – | 0.95 | 0.715 | 0.646 | 0.204 | 0.145 | 0.138 | 0.14 | 0.12 | 0.114 | – | – | – | – | 0.264 | 0.281 | 0.178 | 0.267 | 0.126 | –
9 | SK-LU-1 | 0.917 | 0.938 | 0.816 | 0.46 | 0.302 | 0.187 | 0.213 | 0.192 | 0.178 | 0.176 | – | – | – | – | 0.292 | 0.305 | 0.277 | 0.294 | 0.227 | –
10 | SK-MES-1 | 0.97 | 0.985 | 0.735 | 0.832 | 0.375 | 1.08 | 0.437 | 0.428 | 0.267 | 0.187 | – | – | – | – | 0.947 | 0.996 | 0.955 | 0.631 | 0.21 | –
11 | SW 1573 | 1.15 | 0.894 | 0.941 | 0.97 | 0.722 | 0.235 | 0.196 | 0.333 | 0.188 | 0.132 | – | – | – | – | 0.203 | 0.152 | 0.194 | 0.177 | 0.122 | –
12 | UMC-11 | 0.989 | 1.13 | 1.02 | 0.954 | – | 1.15 | 1.1 | 0.964 | 0.903 | 0.763 | – | – | – | – | 0.198 | 0.2 | 0.216 | 0.179 | 0.185 | –
